# Data as given in ChEMBL document CHEMBL3879886, “Substantially pure 2-{[2-(2-Methylamino-Pyrimidin-4-YL)-1H-Indole-5-Carbonyl]-Amino}-3-Phenylpyridin-2-YL-Amino)-Propionic acid as an IkB kinase inhibitor” (2007).
# Legend:
# Mus musculus = assay: In vivo inhibition of IKK2 in Balb/c mouse assessed as decrease in IL-1beta-induced NF-kappaB activation administered intranasally 0.5 to 1 hr prior to IL-1beta challenge measured after 1 to 24 hrs by luciferase reporter gene assay; format: functional
# [1] = Drug uptake in Hartley guinea pig lung at 0.01 to 0.3 mg/kg administered via intra-tracheal instillation measured after 1 hr; format: ADME, organism-based, Cavia porcellus; conditions: in vivo, inhaled_or_intranasal
# [2] = Drug uptake in Hartley guinea pig plasma at 0.01 to 0.3 mg/kg administered via intra-tracheal instillation measured after 1 hr; format: ADME, organism-based, Cavia porcellus; conditions: in vivo, inhaled_or_intranasal
# [3] = Drug uptake in po dosed Hartley guinea pig plasma; format: ADME, organism-based, Cavia porcellus; conditions: in vivo
# [4] = Prodrug conversion in Hartley guinea pig lung assessed as formation of 2-{[2-(2-Methylamino-pyrimidin-4-yl)-lH-indole-5-carbo- nyl]-amino}-3-(phenyl-pyridin-2-yl-amino)-propionic acid at 0.01 to 0.3 administered via intra-tracheal instillation measured after 1 hr; format: ADME, Cavia porcellus; conditions: in vivo, inhaled_or_intranasal
# [5] = Drug uptake in Hartley guinea pig lung at 0.3 mg/kg administered via intra-tracheal instillation measured after 1 hr; format: ADME, organism-based, Cavia porcellus; conditions: in vivo, inhaled_or_intranasal
Drug uptake [1],Drug uptake [2],Drug uptake [3],Drug metabolism [4],Drug uptake [5],SMILES,inhibition (Mus musculus)
Active,Active,Active,–,–,CNc1nccc(-c2cc3cc(C(=O)N[C@@H](CN(c4ccccc4)c4ccccn4)C(=O)O)ccc3[nH]2)n1,Dose-dependent effect
–,Active,Active,Metabolite_Detected,Active,CNc1nccc(-c2cc3cc(C(=O)N[C@@H](CN(c4ccccc4)c4ccccn4)C(=O)NOC)ccc3[nH]2)n1,Dose-dependent effect
